Laboratory results as given in article PMC7265552 (Scientific Reports, 2020).
Changes are numbered by the printed parent chain. Like-named read-outs stand apart in the source and are kept apart here.

Assays:
human TYK2 I960V mutant = molecular target: T1, human TYK2 I960V mutant (Homo sapiens, UniProt P29597, I960V); assay: JAK Caliper enzyme end-point IC50 assay, human TYK2 I960V mutant; settings: read-out: Human TYK2 I960V IC50; ATP 1 mM; geometric mean ± SD
T1 sequence (P29597 897-1176 I960V limits assumed): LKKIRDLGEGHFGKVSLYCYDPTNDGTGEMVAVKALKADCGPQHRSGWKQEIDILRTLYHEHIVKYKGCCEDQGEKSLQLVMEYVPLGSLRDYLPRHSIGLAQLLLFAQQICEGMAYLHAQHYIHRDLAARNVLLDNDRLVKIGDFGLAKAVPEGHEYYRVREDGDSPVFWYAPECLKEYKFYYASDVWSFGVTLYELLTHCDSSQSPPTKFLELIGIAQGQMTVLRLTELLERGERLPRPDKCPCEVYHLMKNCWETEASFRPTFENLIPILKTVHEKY

human WT TYK2 = molecular target: T2, human WT TYK2 (Homo sapiens, UniProt P29597); assay: JAK Caliper enzyme end-point IC50 assay, human WT TYK2; assay type: biochemical; settings: ATP 1 mM; geometric mean ± SD
T2 construct: His-tagged recombinant human TYK2, mouse TYK2, and human TYK2 I960V mutant kinase domains were expressed in insect cell/baculovirus systems; His; made in house; host or cells: insect cell/baculovirus
T2 sequence (P29597 897-1176 limits assumed): T1 sequence (P29597 897-1176 I960V limits assumed) with V64I

mouse WT TYK2 = molecular target: T3, mouse WT TYK2 (Mus musculus, UniProt Q9R117); assay: JAK Caliper enzyme end-point IC50 assay, mouse WT TYK2; assay type: biochemical
T3 construct: His-tagged recombinant human TYK2, mouse TYK2, and human TYK2 I960V mutant kinase domains were expressed in insect cell/baculovirus systems; His; made in house; host or cells: insect cell/baculovirus
T3 sequence (Q9R117 894-1166 limits assumed): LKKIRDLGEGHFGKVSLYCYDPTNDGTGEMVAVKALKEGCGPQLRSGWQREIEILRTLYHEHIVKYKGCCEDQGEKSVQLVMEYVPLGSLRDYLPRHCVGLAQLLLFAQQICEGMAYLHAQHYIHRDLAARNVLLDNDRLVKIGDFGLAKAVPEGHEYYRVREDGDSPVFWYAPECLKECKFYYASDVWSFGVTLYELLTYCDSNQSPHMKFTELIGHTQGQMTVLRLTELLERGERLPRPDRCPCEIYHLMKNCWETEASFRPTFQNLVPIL

[1] = system: IL-12 (TYK2/JAK2) induced pSTAT4; assay: Phospho-STAT inhibition in lymphocytes, IL-12, mouse V980I knock-in; assay type: cell-based, mouse (C57BL/6 TYK2 V980I knock-in); settings: Lymphocyte, read-out: IL-12 (TYK2/JAK2) induced pSTAT4 IC50, Mouse V980I KI
[2] = system: IL-12 (TYK2/JAK2) induced pSTAT4; assay: Phospho-STAT inhibition in lymphocytes, IL-12, monkey; assay type: cell-based, monkey (cynomolgus); settings: Primates, Leukocyte, read-out: IL-12 (TYK2/JAK2) induced pSTAT4 IC50, Monkey WT
[3] = system: IL-12 (TYK2/JAK2) induced pSTAT4; assay: Phospho-STAT inhibition in lymphocytes, IL-12, dog; assay type: cell-based, dog (Beagle); settings: Canis lupus familiaris, Leukocyte, read-out: IL-12 (TYK2/JAK2) induced pSTAT4 IC50, Dog WT
[4] = system: IL-12/IL-18 induced IFNγ production; assay: PK/PD IL-12/18 induced interferonγ production model, wild type mice; assay type: in vivo, C57BL/6 wild type mice; settings: Mus musculus, 4 h, read-out: IC50 (IC50,u) for inhibition of IL-12/IL-18-induced IFNγ production
[5] = system: IL-12/IL-18 induced IFNγ production; assay: PK/PD IL-12/18 induced interferonγ production model, TYK2 V980I mice; assay type: in vivo, C57BL/6 TYK2 V980I mice; settings: Mus musculus, 4 h, read-out: IC50 (IC50,u) for inhibition of IL-12/IL-18-induced IFNγ production
[6] = system: IL-15 (JAK1/JAK3) induced pSTAT5; assay: Phospho-STAT inhibition in lymphocytes, IL-15, human; assay type: cell-based; settings: Leukocyte, read-out: IL-15 (JAK1/JAK3) induced pSTAT5 IC50, Human WT
[7] = system: IL-12 (TYK2/JAK2) induced pSTAT4; assay: Phospho-STAT inhibition in lymphocytes, IL-12, human; assay type: cell-based; settings: geomean ± SD, four experiments
[8] = system: IL-12 (TYK2/JAK2) induced pSTAT4; assay: Phospho-STAT inhibition in lymphocytes, IL-12, mouse WT; assay type: cell-based, mouse (C57BL/6); settings: Leukocyte, read-out: IL-12 (TYK2/JAK2) induced pSTAT4 IC50, Mouse WT
[9] = system: IL-15 (JAK1/JAK3) induced pSTAT5; assay: Phospho-STAT inhibition in lymphocytes, IL-15, mouse WT; assay type: cell-based, mouse (C57BL/6); settings: Leukocyte, read-out: IL-15 (JAK1/JAK3) induced pSTAT5 IC50, Mouse WT

Row | SMILES | IC50 (human TYK2 I960V mutant) [µM] | IC50 (human WT TYK2) [µM] | IC50 (mouse WT TYK2; ATP 1 mM, geometric mean ± SD) [µM] | further results
1 | CCNC(=O)c1ccc(Nc2nccc(N3C[C@H]4C[C@@H](C3)N4C(=O)C(F)(F)F)n2)cc1 [Compound 16] | 2.57 ± 1.56 | 0.135 ± 0.089 | 3.58 ± 1.98 | –
2 | Cc1cnc(Nc2cnn(CCO)c2)nc1N1CC2C[C@@]2(NC(=O)C2CC2)C1 (some centres unmarked) [Compound 20] | 0.435 ± 0.174 | 0.067 ± 0.021 | 0.784 ± 0.207 | –
3 | Cc1cnc(Nc2cnn(C)c2)nc1N1C[C@H]2[C@@H](C)[C@@]2(NC(=O)C2CC2)C1 [Compound 21] | 0.484 ± 0.369 | 0.05 ± 0.046 | 1.16 ± 1.04 | –
4 | C[C@@H]1[C@@H]2CN(c3nc(Nc4cnn(C)c4)ncc3F)C[C@]12NC(=O)[C@@H]1CC1(F)F [PF-06673518] | – | – | – | IC50 [1]: 0.128 ± 0.011 µM; IC50 [2]: 0.527 ± 0.147 µM; IC50 (mouse WT TYK2): 1.41 µM; IC50 [3]: 0.679 ± 0.254 µM; IC50 [4]: 1.28 µM; IC50 [5]: 0.0266 µM; IC50 [6]: 0.135 ± 0.015 µM; IC50 ([7]; Homo sapiens, Leukocyte, read-out: IL-12 (TYK2/JAK2) induced pSTAT4 IC50, Human WT, human leukocytes, no serum or other proteins): 0.064 µM; IC50 ([7]; read-out: IL-12 (TYK2/JAK2) induced pSTAT4 IC50, Human WT, human leukocytes, no serum or other proteins): 0.0643 ± 0.01 µM; IC50 [8]: 0.518 ± 0.084 µM; IC50 [9]: 0.127 ± 0.0067 µM
5 | C[C@@H]1C2CN(c3nc(Nc4cn[nH]c4)ncc3F)C[C@@]21NC(=O)[C@H]1CC1(F)F (some centres unmarked) [Compound 23] | 0.388 ± 0.05 | 0.013 ± 0.004 | 0.466 ± 0.078 | –
6 | CCNC(=O)c1ccc(Nc2ncc(C)c(N3C[C@H]4C[C@@H]3CN4S(C)(=O)=O)n2)cc1 [Compound 15] | 3.59 ± 0.257 | 0.371 ± 0.037 | 5.24 ± 0.605 | –

More lines, in order of falling IC50 (human TYK2 I960V mutant), values ahead:

Row | IC50 (human TYK2 I960V mutant) [µM] | IC50 (human WT TYK2) [µM] | IC50 (mouse WT TYK2; ATP 1 mM, geometric mean ± SD) [µM] | SMILES | further results
7 | 7.39 ± 1.95 | 0.208 ± 0.051 | 8.16 ± 2.03 | CNC(=O)c1ncc(Nc2nccc(N3C[C@H]4C[C@@]4(NC(=O)C4CC4)C3)n2)cc1C [Compound 19] | –
8 | 1.56 ± 0.257 | 0.038 ± 0.008 | 2.12 ± 0.465 | Cn1cc(Nc2ncc(F)c(N3C[C@H]4C[C@@]4(NC(=O)[C@@H]4CC4(F)F)C3)n2)cn1 [Compound 26] | –
9 | 1.23 ± 0.22 | 0.046 ± 0.011 | 1.52 ± 0.217 | CCNC(=O)c1ncc(Nc2ncc(F)c(N3C[C@H]4CC[C@@H](C3)N4CCC#N)n2)cc1C [Compound 17] | –
10 | 1.02 ± 0.263 | 0.073 ± 0.018 | 1.33 ± 0.396 | Cn1cc(Nc2nccc(N3C[C@H]4CC[C@@H](C3)N4CCC#N)n2)cn1 [Compound 22] | –
11 | 0.538 ± 0.622 | 0.035 ± 0.034 | 0.841 ± 0.989 | CCNC(=O)c1ncc(Nc2ncc(Cl)c(N3C[C@H]4C[C@@]4(NC(=O)C4CC4)C3)n2)cc1C [Compound 18] | –
12 | 0.055 ± 0.025 | 0.015 ± 0.006 | 0.18 ± 0.089 | Cc1cnc(Nc2cnn(C)c2)nc1N1C[C@H]2CC[C@@H](C1)N2C(=O)[C@@H]1CC1(F)F [Compound 28] | –
13 | 0.03 ± 0.001 | 0.008 ± 0.004 | 0.1 ± 0.017 | Cn1cc(Nc2ncc(Cl)c(N3C[C@H]4CC[C@@H](C3)N4C(=O)[C@@H]3CC3(F)F)n2)cn1 [Compound 29] | –
